The values below come from patent publication US20100267638A1, “EXOSITE-DIRECTED THROMBIN INHIBITORS” (CLEVELAND STATE UNIVERSITY, priority 2003, published 2010).

Where two headings read alike, the source gives them in different places. No end group written: not given here.

One assay addresses T1, prothrombin (Homo sapiens, UniProt P00734).
T1 construct: purchased Haematologic Technologies Inc. (Essex Junction, Vt.)
Kind of assay: KD of peptide for prothrombin, from kinetics of prothrombinase inhibition. In kind it is biochemical. An excerpt:
The mechanism of inhibition of prothrombinase by the hirudin-like peptides HC3 and HC4 was addressed by investigating the effect of the peptides on the kinetic parameters of the enzymatic complex (Km and Vmax). For the sake of simplicity only the results obtained with HC4 are shown (FIG. 2C). In FIG. 2C, the data are plotted as V0 (initial velocity, in arbitrary units) as a function of increasing prothrombin concentration in the presence of increasing concentrations of HC4. The lines drawn represent the best fit through the points with an R^2 of 0.99. The concentrations of HC4 used in the experiments are as follows: control no peptide (filled squares), 0.5 μM peptide (filled circles), 1 μM peptide (filled inverted triangles), 1.5 μM peptide (filled diamonds), and 2 μM peptide (filled triangles). […]
In FIG. 3B, the data are plotted as V0 (initial velocity, in arbitrary units) as a function of increasing prothrombin concentration in the presence of increasing concentrations of peptide DYDYQ. […] The kinetic constants calculated from the data presented in this graph were used to calculate the kcat reported in FIG. 7 assuming a final concentration of 4 nM prothrombinase. […]

The next assay has as its target thrombin (Homo sapiens, UniProt P00734). In words: Activation of plasma factor V by thrombin preincubated with peptide (SDS-PAGE, immunoblotting). In kind it is biochemical. The arrangement: Factor Xa cleaves prothrombin to form thrombin; purchased Haematologic Technologies Inc. (Essex Junction, Vt.). The note with it: thrombin 1 nM preincubated with 100 μM peptide, factor V 250 nM. The method, then:
Gel Electrophoresis and western blotting. Sodium dodecyl sulfate polyacrylamide gel electrophoresis (SDS-PAGE) analyses were performed using 4-12% gradient gels according to the method of Laemmli. In several experiments, proteins were transferred to polyvinylidene difluoride (PVDF) membranes according to the method described by Towbin et al. After transfer to nitrocellulose, factor V heavy and light chain(s) were detected using the appropriate monoclonal and polyclonal antibodies. Immunoreactive fragments were visualized with chemiluminescence.
Factor V (250 nM) was incubated with thrombin (1 nM). And FIG. 4B illustrates thrombin (1 nM) was preincubated with 100 μM peptide DYDYQ and the mixture was added to factor V (250 nM). […] Fragments were identified following staining with monoclonal antibody αHFV#17 that recognizes an epitope between amino acid residues 307-506 of factor V and chemiluminescence as described. Lane 1 in both panels depicts aliquots of the mixture withdrawn from the reaction before the addition of thrombin or thrombin/peptide mixture while lanes 2-7 show aliquots of the reaction mixture withdrawn at 30 sec, 1 min, 3 min, 5 min, 10 min, 15 min following the addition of thrombin alone or of thrombin/peptide mixture. The time of incubation is shown at the bottom of the figure. Position of the molecular weight markers is indicated at left.

Consider DYDYQ [DYDYQ, Asp-Tyr-Asp-Tyr-Gln], for which the Kd on prothrombin (from Ki of prothrombinase inhibition, read-out: KD for prothrombin) was 850 nM; on prothrombin (kinetic model FIG. 7, read-out: KD of inhibitor interaction with prothrombin) it was about 850 nM. For the same substance, the “inhibition of activation of factor V by thrombin (cleavage at Arg709)” value is recorded as “inhibited” against thrombin and “potent inhibitor” against thrombin (listed as pentapeptide).
